# Results as given in patent US20230173008A1, “Composition for preventing hair loss or promoting hair growth comprising extract of above-ground part of carrots” (DAEBONG LS, LTD, priority 2020, published 2023).
# Like-named read-outs stand apart in the source and are kept apart here.
# Tested on: human dermal papilla cells
# Assay: cells
# Conditions: Human dermal papilla cell, read-out: viability of human dermal papilla cells
# Procedure: Human follicle dermal papilla cells were purchased from PromoCell Co., and a human follicle dermal papilla cell growth medium containing fetal calf serum, bovine pituitary extract, basic fibroblast growth factor and insulin was used and cultured at 37° C. and 5% CO2 incubator.
# When the cultured human dermal papilla cells were dispensed in a 48 well plate at 1 × 10^4 cell/mL, and when the amount reached 80% or more, the extract of Example was treated at the concentrations shown in Table 2 below. The positive control group was treated with minoxidil at concentrations of 10 and 50 µM. After culturing the cells for 24, 48, and 72 hours, 200 µL of a 0.5 mg/mL solution of MTT diluted in the medium were added and cultured at 37° C. for 4 hours. After removing the solution, adding 200 µL of DMSO, and transferring 100 µL to a 96 well plate, absorbance was measured at 585 nm using a microplate reader. The average absorbance value for each sample group was obtained, and the cell viability was evaluated by comparing the average absorbance value with the absorbance value of the control group.
compound,measurement,setting,value
"Nc1cc(N2CCCCC2)nc(N)[n+]1[O-] [Positive control group, minoxidil]",viability at 10 µM,24 h,104%
same,viability at 50 µM,24 h,107%
same,viability at 10 µM,48 h,107%
same,viability at 50 µM,48 h,116%
same,viability at 10 µM,72 h,115%
same,viability at 50 µM,72 h,125%
